pIC50: −log10 of the molar value. Like-named read-outs stand apart in the source and are kept apart here.
What was measured:
OXA-2 = molecular target: T1, OXA-2 (Escherichia coli, UniProt P0A1V9); assay: biochemical; design: species or system P. aeruginosa
T1 construct: AmpC, TEM-1, KPC-2 or OXA-2 domain excluding signal peptide was amplified with PCR; made in house; host or cells: Escherichia coli BL21 (DE3), pET-28b(+)

KPC-2 = molecular target: T2, KPC-2 (Klebsiella pneumoniae, UniProt Q9F663); assay: β-Lactamase inhibitory activity (nitrocefin hydrolysis), KPC-2; format: biochemical; conditions: KPC-2 0.5 nM, 100 μM nitrocefin, pre-incubation 30° C. 10 minutes
T2 construct: AmpC, TEM-1, KPC-2 or OXA-2 domain excluding signal peptide was amplified with PCR; made in house; host or cells: Escherichia coli BL21 (DE3), pET-28b(+)
T2 sequence (Q9F663 25-293, looked up): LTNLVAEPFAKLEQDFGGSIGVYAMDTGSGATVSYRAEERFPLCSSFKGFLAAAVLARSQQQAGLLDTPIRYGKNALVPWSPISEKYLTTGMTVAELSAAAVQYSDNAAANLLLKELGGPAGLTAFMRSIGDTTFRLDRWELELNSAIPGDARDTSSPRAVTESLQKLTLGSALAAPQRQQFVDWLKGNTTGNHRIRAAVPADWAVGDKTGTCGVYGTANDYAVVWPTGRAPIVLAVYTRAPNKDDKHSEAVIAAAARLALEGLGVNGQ

AmpC = molecular target: T3, AmpC (Pseudomonas aeruginosa, UniProt P24735); assay: biochemical
T3 construct: AmpC, TEM-1, KPC-2 or OXA-2 domain excluding signal peptide was amplified with PCR; made in house; host or cells: Escherichia coli BL21 (DE3), pET-28b(+)
T3 sequence (P24735 27-397): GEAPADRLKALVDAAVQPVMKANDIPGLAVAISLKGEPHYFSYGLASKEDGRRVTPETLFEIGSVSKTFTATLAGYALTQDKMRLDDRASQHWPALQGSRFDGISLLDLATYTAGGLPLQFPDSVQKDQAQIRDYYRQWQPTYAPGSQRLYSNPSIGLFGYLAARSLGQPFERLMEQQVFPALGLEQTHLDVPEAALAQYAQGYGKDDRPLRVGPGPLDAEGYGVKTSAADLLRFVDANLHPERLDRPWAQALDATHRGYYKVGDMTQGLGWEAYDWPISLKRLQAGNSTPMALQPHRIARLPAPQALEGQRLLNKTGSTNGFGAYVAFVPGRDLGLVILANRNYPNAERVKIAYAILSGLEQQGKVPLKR

TEM-1 = molecular target: T4, TEM-1 (Escherichia coli, UniProt P62593); assay: β-Lactamase inhibitory activity (nitrocefin hydrolysis), TEM-1; format: biochemical; conditions: TEM-1 0.1 nM, 100 μM nitrocefin, pre-incubation 30° C. 10 minutes
T4 construct: AmpC, TEM-1, KPC-2 or OXA-2 domain excluding signal peptide was amplified with PCR; made in house; host or cells: Escherichia coli BL21 (DE3), pET-28b(+)
T4 sequence (P62593 24-286 limits assumed): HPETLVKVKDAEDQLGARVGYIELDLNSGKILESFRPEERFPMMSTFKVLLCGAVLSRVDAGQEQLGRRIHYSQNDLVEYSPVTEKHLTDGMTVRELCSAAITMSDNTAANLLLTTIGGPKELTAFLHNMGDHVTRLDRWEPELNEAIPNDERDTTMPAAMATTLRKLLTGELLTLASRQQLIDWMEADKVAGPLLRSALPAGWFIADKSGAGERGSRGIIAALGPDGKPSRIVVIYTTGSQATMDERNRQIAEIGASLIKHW
Method: Using Pseudomonas aeruginosa ATCCBAA-47 genome, plasmid pBR322, Klebsiella pneumoniae ATCCBAA-1705, and P. aeruginosa MSC17696 as a template, each DNA for encoding β-lactamase, AmpC, TEM-1, KPC-2 or OXA-2 domain excluding signal peptide was amplified with PCR. Each of the PCR product was incorporated into pET-28b(+)vector (Merck), introduced into Escherichia coli BL21 (DE3) (Merck), and, under induction of 1 mM isopropyl-β-D-(−)-thiogalactopyranoside (Nacalai Tesque), cultured overnight at 20° C. to express AmpC, TEM-1, KPC-2, and OXA-2. After the bacterial cell was collected, AmpC was purified from the cell extract obtained by ultrasonic treatment, using CM Sepharose Fast Flow (GE Healthcare) and HiTrap Heparin HP (GE Healthcare) at 4° C. TEM-1 was purified with HiTrap SPHP (GE Healthcare), HiTrap Q (GE Healthcare) and Mono Q (GE Healthcare), and KPC-2 was purified with HiTrap SPHP. OXA-2 was purified with HiTrap SPHP and HiTrap Heparin HP.
For the measurement of β-lactamase inhibitory activity, 100 μM (final concentration) nitrocefin (Oxoid) was used as a substrate, and 2.5% DMSO, 10 μg/mL bovine serum derived albumin (Sigma-Aldrich) and 50 mM phosphate buffer at pH 7.0 were used as a reaction solution. […] Nitrocefin was added to each well to be mixed therein, followed by incubation at 30° C. for 20 minutes, and Multiscan Ascent (Thermo Fisher Scientific) was used to measure 492 nm wavelength, thereby measuring nitrocefin hydrolytic activity of β-Lactamase, to determine enzyme inhibitory activity. […] As the inhibitory activity strength, less than 0.1 μM, less than 1 μM, less than 3 μM, less than 10 μM, and 10 μM or more were shown with A, B, C, D, and E respectively.

[1] = OXA-2 2 nM, 100 μM nitrocefin, pre-incubation 30° C. 10 minutes, read-out: β-Lactamase inhibitory activity OXA-2 (IC50)

T1 sequence (P0A1V9 22-275): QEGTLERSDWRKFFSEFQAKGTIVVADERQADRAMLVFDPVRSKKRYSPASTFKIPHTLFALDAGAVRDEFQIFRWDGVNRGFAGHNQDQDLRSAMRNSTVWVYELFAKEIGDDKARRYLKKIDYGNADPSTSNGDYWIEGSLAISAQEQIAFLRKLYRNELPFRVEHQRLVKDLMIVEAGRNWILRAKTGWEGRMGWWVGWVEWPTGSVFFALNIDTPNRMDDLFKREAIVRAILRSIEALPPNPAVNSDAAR

## O=C(NNC(=O)[C@@H]1CC[C@@H]2CN1C(=O)N2OS(=O)(=O)O)c1ccco1 [Example 43, Sodium (2S,5R)—N′-(furan-2-ylcarbonyl)-7-oxo-6-(sulfooxy)-1,6-diazabicyclo[3.2.1]octane-2-carbohydrazide]
OXA-2
  pIC50: 5.52 to 6.00
KPC-2
  pIC50: 6.00 to 7.00
AmpC
  pIC50: 6.00 to 7.00
TEM-1
  pIC50: > 7.00

## O=C(NOCC1CNC1)[C@@H]1CC[C@@H]2CN1C(=O)N2OS(=O)(=O)O [Example 82, (2S,5R)—N-(Azetidin-3-ylmethoxy)-7-oxo-6-(sulfooxy)-1,6-diazabicyclo[3.2.1]octane-2-carboxamide]
OXA-2; [1]
  pIC50: 6.00 to 7.00
KPC-2
  pIC50: 6.00 to 7.00
AmpC
  pIC50: > 7.00
TEM-1
  pIC50: > 7.00

## CC(C)NCCONC(=O)[C@@H]1CC[C@@H]2CN1C(=O)N2OS(=O)(=O)O [Example 64, (2S,5R)-7-Oxo-N-[2-(propan-2-ylamino)ethoxy]-6-(sulfooxy)-1,6-diazabicyclo[3.2.1]octane-2-carboxamide]
OXA-2; [1]
  pIC50: 5.52 to 6.00
KPC-2
  pIC50: 6.00 to 7.00
AmpC
  pIC50: 6.00 to 7.00
TEM-1
  pIC50: > 7.00

## CCCNCCONC(=O)[C@@H]1CC[C@@H]2CN1C(=O)N2OS(=O)(=O)O [Example 63, (2S,5R)-7-Oxo-N-[2-(propylamino)ethoxy]-6-(sulfooxy)-1,6-diazabicyclo[3.2.1]octane-2-carboxamide]
OXA-2; [1]
  pIC50: 5.52 to 6.00
KPC-2
  pIC50: 6.00 to 7.00
AmpC
  pIC50: 6.00 to 7.00
TEM-1
  pIC50: > 7.00

## O=C(NOCC(=O)N1CCNCC1)[C@@H]1CC[C@@H]2CN1C(=O)N2OS(=O)(=O)O [Example 90, (2S,5R)-7-Oxo-N-[2-oxo-2-(piperazin-1-yl)ethoxy]-6-(sulfooxy)-1,6-diazabicyclo[3.2.1]octane-2-carboxamide]
OXA-2; [1]
  pIC50: 6.00 to 7.00
KPC-2
  pIC50: 6.00 to 7.00
AmpC
  pIC50: > 7.00
TEM-1
  pIC50: > 7.00

## O=C(NOCCO)[C@@H]1CC[C@@H]2CN1C(=O)N2OS(=O)(=O)O [Example 95, Sodium (2S,5R)—N-(2-hydroxyethoxy)-7-oxo-6-(sulfooxy)-1,6-diazabicyclo[3.2.1]octane-2-carboxamide]
OXA-2
  pIC50: 5.52 to 6.00
KPC-2
  pIC50: > 7.00
AmpC
  pIC50: > 7.00
TEM-1
  pIC50: > 7.00

## CS(=O)(=O)CCONC(=O)[C@@H]1CC[C@@H]2CN1C(=O)N2OS(=O)(=O)O [Example 97, Sodium (2S,5R)—N-[2-(methylsulfonyl)ethoxy]-7-oxo-6-(sulfooxy)-1,6-diazabicyclo[3.2.1]octane-2-carboxamide]
OXA-2
  pIC50: 6.00 to 7.00
KPC-2
  pIC50: > 7.00
AmpC
  pIC50: > 7.00
TEM-1
  pIC50: > 7.00

## CCC(=O)NNC(=O)[C@@H]1CC[C@@H]2CN1C(=O)N2OS(=O)(=O)O [Example 22, Sodium (2S,5R)-7-oxo-N′-propanoyl-6-(sulfooxy)-1,6-diazabicyclo[3.2.1]octane-2-carbohydrazide]
OXA-2
  pIC50: 5.00 to 5.52
KPC-2
  pIC50: 6.00 to 7.00
AmpC
  pIC50: 6.00 to 7.00
TEM-1
  pIC50: > 7.00

## CC(C)C(=O)NNC(=O)[C@@H]1CC[C@@H]2CN1C(=O)N2OS(=O)(=O)O [Example 23, Sodium (2S,5R)—N′-(2-methylpropanoyl)-7-oxo-6-(sulfooxy)-1,6-diazabicyclo[3.2.1]octane-2-carbohydrazide]
OXA-2
  pIC50: 5.00 to 5.52
KPC-2
  pIC50: 6.00 to 7.00
AmpC
  pIC50: 6.00 to 7.00
TEM-1
  pIC50: > 7.00

## O=C(NNC(=O)[C@@H]1CC[C@@H]2CN1C(=O)N2OS(=O)(=O)O)c1ccncc1 [Example 46, Sodium (2S,5R)-7-oxo-N′-(pyridine-4-ylcarbonyl)-6-(sulfooxy)-1,6-diazabicyclo[3.2.1]octane-2-carbohydrazide]
OXA-2
  pIC50: 5.52 to 6.00
KPC-2
  pIC50: 6.00 to 7.00
AmpC
  pIC50: > 7.00
TEM-1
  pIC50: > 7.00

## NCc1ccc(C(=O)NNC(=O)[C@@H]2CC[C@@H]3CN2C(=O)N3OS(=O)(=O)O)cc1 (racemic) [Example 32, (2SR,5RS)—N′-(4-(Aminomethyl)benzoyl)-7-oxo-6-(sulfooxy)-1,6-diazabicyclo[3.2.1]octane-2-carbohydrazide]
OXA-2; [1]
  pIC50: 5.00 to 5.52
KPC-2
  pIC50: 6.00 to 7.00
AmpC
  pIC50: > 7.00
TEM-1
  pIC50: > 7.00

## C[C@H](N)CONC(=O)[C@@H]1CC[C@@H]2CN1C(=O)N2OS(=O)(=O)O [Example 66, (2S,5R)—N-{[(2S)-2-Aminopropyl]oxy}-7-oxo-6-(sulfooxy)-1,6-diazabicyclo[3.2.1]octane-2-carboxamide]
OXA-2; [1]
  pIC50: 5.52 to 6.00
KPC-2
  pIC50: 5.52 to 6.00
AmpC
  pIC50: 6.00 to 7.00
TEM-1
  pIC50: > 7.00

## O=C(NN1CCOCC1)[C@@H]1CC[C@@H]2CN1C(=O)N2OS(=O)(=O)O (racemic) [Example 55, Sodium (2SR,5RS)—N-(morpholin-4-yl)-7-oxo-6-(sulfooxy)-1,6-diazabicyclo[3.2.1]octane-2-carboxamide]
OXA-2
  pIC50: 5.00 to 5.52
KPC-2
  pIC50: 5.52 to 6.00
AmpC
  pIC50: 6.00 to 7.00
TEM-1
  pIC50: 6.00 to 7.00

## O=C(NOC1CNC1)[C@@H]1CC[C@@H]2CN1C(=O)N2OS(=O)(=O)O [Example 79, (2S,5R)—N-(Azetidin-3-yloxy)-7-oxo-6-(sulfooxy)-1,6-diazabicyclo[3.2.1]octane-2-carboxamide]
OXA-2; [1]
  pIC50: 5.52 to 6.00
KPC-2
  pIC50: 5.52 to 6.00
AmpC
  pIC50: 6.00 to 7.00
TEM-1
  pIC50: > 7.00

## O=C(NNC(=O)N1CCOCC1)[C@@H]1CC[C@@H]2CN1C(=O)N2OS(=O)(=O)O [Example 50, Sodium (2S,5R)—N′-(morpholin-4-ylcarbonyl)-7-oxo-6-(sulfooxy)-1,6-diazabicyclo[3.2.1]octane-2-carbohydrazide]
OXA-2
  pIC50: 5.00 to 5.52
KPC-2
  pIC50: 6.00 to 7.00
AmpC
  pIC50: > 7.00
TEM-1
  pIC50: 6.00 to 7.00

## O=C(NNC(=O)[C@@H]1CC[C@@H]2CN1C(=O)N2OS(=O)(=O)O)[C@@H]1C[C@H](CC2CC2)CCN1 [Example 40, (2S,5R)—N′-{[(2S,4R)-4-Cyclopropylmethylpiperidine-2-yl]carbonyl}-7-oxo-6-(sulfooxy)-1,6-diazabicyclo[3.2.1]octane-2-carbohydrazide]
OXA-2; [1]
  pIC50: 5.52 to 6.00
KPC-2
  pIC50: 5.00 to 5.52
AmpC
  pIC50: 6.00 to 7.00
TEM-1
  pIC50: > 7.00

## O=C(NOCCN1CCCC1=O)[C@@H]1CC[C@@H]2CN1C(=O)N2OS(=O)(=O)O [Example 93, Sodium (2S,5R)-7-oxo-N-[2-(2-oxopyrrolidin-1-yl)ethoxy]-6-(sulfooxy)-1,6-diazabicyclo[3.2.1]octane-2-carboxamide]
OXA-2
  pIC50: 6.00 to 7.00
KPC-2
  pIC50: 6.00 to 7.00
AmpC
  pIC50: > 7.00
TEM-1
  pIC50: > 7.00

## CCOC(=O)NNC(=O)[C@@H]1CC[C@@H]2CN1C(=O)N2OS(=O)(=O)O [Example 52, Sodium ethyl 2-{[(2S,5R)-7-oxo-6-(sulfooxy)-1,6-diazabicyclo[3.2.1]oct-2-yl]carbonyl}hydrazinecarboxylate]
OXA-2
  pIC50: 5.52 to 6.00
KPC-2
  pIC50: 6.00 to 7.00
AmpC
  pIC50: 6.00 to 7.00
TEM-1
  pIC50: > 7.00

## O=C(NNC(=O)[C@@H]1CC[C@@H]2CN1C(=O)N2OS(=O)(=O)O)Nc1ccccc1 (racemic) [Example 49, Sodium 2-{[(2SR,5RS)-7-oxo-6-(sulfooxy)-1,6-diazabicyclo[3.2.1]oct-2-yl]carbonyl}-N-phenylhydrazinecarboxamide]
OXA-2
  pIC50: 5.00 to 5.52
KPC-2
  pIC50: 6.00 to 7.00
AmpC
  pIC50: 6.00 to 7.00
TEM-1
  pIC50: > 7.00

## CC(=O)N(C)NC(=O)[C@@H]1CC[C@@H]2CN1C(=O)N2OS(=O)(=O)O (racemic) [Example 25, Sodium (2SR,5RS)—N′-acetyl-N′-methyl-7-oxo-6-(sulfooxy)-1,6-diazabicyclo[3.2.1]octane-2-carbohydrazide]
OXA-2
  pIC50: < 5.00
KPC-2
  pIC50: > 7.00
AmpC
  pIC50: 6.00 to 7.00
TEM-1
  pIC50: > 7.00

From patent US10556905B2, “Processes for preparing a diazabicyclooctane compound” (priority 2012, dated 2020)
